Results as given in patent US10870647B2, “Imidazopyridine derivative, method for preparing same, and pharmaceutical composition containing same as active ingredient for preventing or treating cancer” (DAEGU-GYEONGBUK MEDICAL INNOVATION FOUNDATION, priority 2016, dated 2020).

Experiments:
CSF1R = target: T1, CSF1R (Homo sapiens, UniProt P07333); assay: Enzyme inhibitory activity (Kd), Reaction Biology Co.; assay type: binding
T1 construct: purchased Reaction Biology Co

LOK = target: T2, LOK (Homo sapiens, UniProt O94804); assay: as above; assay type: binding
T2 construct: purchased Reaction Biology Co
T2 sequence (O94804 whole entry): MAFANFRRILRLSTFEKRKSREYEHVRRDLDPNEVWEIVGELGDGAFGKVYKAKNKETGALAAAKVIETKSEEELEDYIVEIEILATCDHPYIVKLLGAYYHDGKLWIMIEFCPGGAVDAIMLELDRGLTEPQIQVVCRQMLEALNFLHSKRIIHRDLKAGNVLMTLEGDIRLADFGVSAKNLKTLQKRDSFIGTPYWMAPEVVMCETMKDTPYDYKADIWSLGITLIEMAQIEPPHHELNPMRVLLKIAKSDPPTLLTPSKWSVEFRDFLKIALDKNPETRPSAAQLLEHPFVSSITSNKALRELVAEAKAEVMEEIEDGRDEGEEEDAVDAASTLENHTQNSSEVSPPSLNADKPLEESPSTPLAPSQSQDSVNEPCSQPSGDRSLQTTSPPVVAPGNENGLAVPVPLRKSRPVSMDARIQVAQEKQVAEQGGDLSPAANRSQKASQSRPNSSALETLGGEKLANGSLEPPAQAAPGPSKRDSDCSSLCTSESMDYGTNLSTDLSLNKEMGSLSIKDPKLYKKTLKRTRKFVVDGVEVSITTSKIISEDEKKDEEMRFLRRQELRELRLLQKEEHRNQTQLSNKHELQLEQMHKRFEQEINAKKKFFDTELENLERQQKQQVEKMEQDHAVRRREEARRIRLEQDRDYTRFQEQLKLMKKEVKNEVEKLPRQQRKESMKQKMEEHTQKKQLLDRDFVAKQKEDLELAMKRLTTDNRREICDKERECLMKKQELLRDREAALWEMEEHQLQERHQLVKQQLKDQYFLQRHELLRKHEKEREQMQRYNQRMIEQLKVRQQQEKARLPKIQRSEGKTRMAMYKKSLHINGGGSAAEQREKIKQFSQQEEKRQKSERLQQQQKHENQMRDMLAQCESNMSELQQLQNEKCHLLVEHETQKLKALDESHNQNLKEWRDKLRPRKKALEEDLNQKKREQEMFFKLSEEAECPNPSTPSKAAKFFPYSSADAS

EPHB6 = target: T3, EPHB6 (Homo sapiens, UniProt O15197); assay: as above; assay type: binding
T3 construct: purchased Reaction Biology Co
T3 sequence (O15197 32-1021): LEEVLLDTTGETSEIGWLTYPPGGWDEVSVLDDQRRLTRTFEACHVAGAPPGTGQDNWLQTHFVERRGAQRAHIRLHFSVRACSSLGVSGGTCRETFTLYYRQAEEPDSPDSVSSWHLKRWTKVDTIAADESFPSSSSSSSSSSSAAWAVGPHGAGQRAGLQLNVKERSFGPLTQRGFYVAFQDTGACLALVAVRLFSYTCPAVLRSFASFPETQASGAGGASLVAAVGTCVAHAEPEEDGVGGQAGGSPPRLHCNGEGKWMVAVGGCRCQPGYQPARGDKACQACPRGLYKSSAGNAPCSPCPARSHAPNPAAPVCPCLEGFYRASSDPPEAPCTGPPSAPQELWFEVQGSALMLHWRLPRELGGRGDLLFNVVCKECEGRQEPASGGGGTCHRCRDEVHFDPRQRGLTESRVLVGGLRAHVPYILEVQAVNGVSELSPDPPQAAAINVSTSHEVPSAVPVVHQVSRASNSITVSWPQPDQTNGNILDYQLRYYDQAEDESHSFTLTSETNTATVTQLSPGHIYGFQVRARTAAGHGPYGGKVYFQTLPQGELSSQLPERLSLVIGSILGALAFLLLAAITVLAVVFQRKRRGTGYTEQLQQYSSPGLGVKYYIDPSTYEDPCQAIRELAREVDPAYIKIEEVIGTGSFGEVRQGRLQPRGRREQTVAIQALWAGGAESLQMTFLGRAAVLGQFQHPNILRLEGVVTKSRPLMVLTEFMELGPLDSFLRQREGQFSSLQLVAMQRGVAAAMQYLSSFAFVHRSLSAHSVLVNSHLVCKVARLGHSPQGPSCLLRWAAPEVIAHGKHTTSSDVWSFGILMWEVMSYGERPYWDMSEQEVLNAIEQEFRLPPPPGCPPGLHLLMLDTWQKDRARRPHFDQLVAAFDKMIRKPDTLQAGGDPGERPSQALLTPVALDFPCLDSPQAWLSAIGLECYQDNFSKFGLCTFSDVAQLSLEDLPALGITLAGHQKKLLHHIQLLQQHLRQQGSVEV

MDA-MB-231 = assay: Real time cell proliferation, IncuCyte ZOOM, 72 hours; assay type: cell-based; conditions: Homo sapiens, MDA-MB-231, 72 h
FGFR4 = target: T4, FGFR4 (Homo sapiens, UniProt P22455); assay: Enzyme inhibitory activity (Kd), Reaction Biology Co.; assay type: binding
T4 construct: purchased Reaction Biology Co
T4 sequence (P22455 22-802): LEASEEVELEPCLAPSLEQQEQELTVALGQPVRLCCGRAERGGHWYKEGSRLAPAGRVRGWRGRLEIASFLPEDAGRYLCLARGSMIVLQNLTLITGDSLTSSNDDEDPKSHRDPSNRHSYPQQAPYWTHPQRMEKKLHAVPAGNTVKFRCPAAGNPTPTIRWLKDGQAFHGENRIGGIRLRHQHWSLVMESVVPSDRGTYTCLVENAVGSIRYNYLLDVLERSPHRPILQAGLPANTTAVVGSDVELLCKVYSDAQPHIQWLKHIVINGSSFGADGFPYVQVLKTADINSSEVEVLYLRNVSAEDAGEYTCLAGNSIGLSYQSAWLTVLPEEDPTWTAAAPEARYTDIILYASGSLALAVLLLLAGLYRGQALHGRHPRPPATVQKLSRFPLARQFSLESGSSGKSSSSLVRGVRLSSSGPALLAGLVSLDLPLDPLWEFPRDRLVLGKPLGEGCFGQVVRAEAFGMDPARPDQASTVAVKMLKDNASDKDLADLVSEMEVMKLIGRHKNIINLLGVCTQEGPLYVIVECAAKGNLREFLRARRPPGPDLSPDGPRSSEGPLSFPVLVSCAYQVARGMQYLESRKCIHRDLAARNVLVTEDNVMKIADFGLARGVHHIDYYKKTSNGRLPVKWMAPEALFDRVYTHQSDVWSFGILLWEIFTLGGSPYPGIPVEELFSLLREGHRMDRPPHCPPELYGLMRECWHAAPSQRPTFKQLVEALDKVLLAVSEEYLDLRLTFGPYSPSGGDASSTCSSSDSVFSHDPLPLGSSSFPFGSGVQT

RET(V804M) = target: T5, RET(V804M) (Homo sapiens, UniProt P07949, V804M); assay: as above; assay type: binding
T5 construct: purchased Reaction Biology Co
T5 sequence (P07949 29-1114 V804M): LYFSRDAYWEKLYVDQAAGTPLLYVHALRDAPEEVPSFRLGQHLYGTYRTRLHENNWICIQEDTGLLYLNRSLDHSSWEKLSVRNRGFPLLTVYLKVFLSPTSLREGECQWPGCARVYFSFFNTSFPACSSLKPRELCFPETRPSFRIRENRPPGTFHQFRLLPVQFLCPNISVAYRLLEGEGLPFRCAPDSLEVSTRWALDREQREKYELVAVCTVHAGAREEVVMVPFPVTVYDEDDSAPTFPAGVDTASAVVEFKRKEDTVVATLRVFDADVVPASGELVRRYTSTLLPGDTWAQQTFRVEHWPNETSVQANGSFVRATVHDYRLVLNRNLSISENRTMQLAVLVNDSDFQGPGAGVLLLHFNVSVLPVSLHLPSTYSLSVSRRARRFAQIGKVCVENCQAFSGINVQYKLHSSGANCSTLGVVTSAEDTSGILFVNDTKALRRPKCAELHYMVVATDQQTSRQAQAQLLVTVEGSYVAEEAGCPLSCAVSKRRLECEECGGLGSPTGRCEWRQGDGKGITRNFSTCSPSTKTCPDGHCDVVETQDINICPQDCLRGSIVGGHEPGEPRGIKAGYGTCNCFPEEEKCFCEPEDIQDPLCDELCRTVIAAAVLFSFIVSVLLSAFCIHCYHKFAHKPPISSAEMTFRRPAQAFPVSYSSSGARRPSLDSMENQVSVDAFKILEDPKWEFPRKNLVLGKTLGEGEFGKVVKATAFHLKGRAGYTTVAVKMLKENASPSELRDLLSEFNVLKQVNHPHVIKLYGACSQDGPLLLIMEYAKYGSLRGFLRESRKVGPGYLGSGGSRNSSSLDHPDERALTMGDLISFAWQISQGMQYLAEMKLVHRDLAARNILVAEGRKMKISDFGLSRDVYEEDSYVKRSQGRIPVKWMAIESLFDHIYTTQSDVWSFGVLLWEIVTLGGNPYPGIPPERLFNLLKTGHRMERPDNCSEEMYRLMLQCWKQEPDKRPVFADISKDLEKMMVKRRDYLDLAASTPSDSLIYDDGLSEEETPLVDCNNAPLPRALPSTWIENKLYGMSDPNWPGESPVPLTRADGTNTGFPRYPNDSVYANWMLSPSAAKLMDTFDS

RET = target: T6, RET (Homo sapiens, UniProt P07949); assay: as above; assay type: binding
T6 construct: purchased Reaction Biology Co
T6 sequence (P07949 29-1114): as the sequence (P07949 29-1114 V804M) above, with M776V counted along it

[1] = system: STZ diabetes induced white mice; assay: Diabetes (streptozotocin) induced white mice; assay type: in vivo, SD rats; conditions: STZ + Example 11 (30 mg/kg), 8 weeks; Mean ± SE
Protocol: Blood was collected with a heparinized syringe before sacrificing the experimental animals. HbA1c was measured by using a DCA2000 HbA1c reagent kit (SIEMENS Healthcare Diagnostics, Inc., Tarrytown, N.Y., USA) and blood sugar was measured by using a glucometer (OneTouch Ultra, Johnson & Johnson co., CA, USA). The blood sample obtained above was centrifuged at 3000 rpm at 4° C. for 15 minutes to obtain serum. Serum cystatin C was measured by using an ELISA kit (R&D Systems, Minneapolis, Minn., USA). […]
Male SD white mice at 6-7 weeks of age (Japan SLC Inc., Hamamatsu, Japan) were used. Streptozotocin (STZ, 60 mg/kg, intraperitoneally administered) was administered to the experimental animals to induce type I diabetes. The STZ non-treated control group was treated with sodium citrate buffer (sodium citrate 100 mM, citric acid 100 mM, pH 4.5). To investigate the therapeutic effect of the compound of example 11, the compound was orally administered to the experimental animals for 8 weeks from the beginning of diabetes induction. The effect was compared with that of losartan (1 mg/kg/d) that is an angiotensin receptor antagonist being used clinically as a drug to treat diabetic nephropathy. The diabetic control (treated with STZ alone) was administered with the solvent of Example 11, DMSO/Tween 70.DW (10:5:85).
Table 8 below presents the body weight, kidney weight, ratio of kidney to body weight, HbA1C, blood sugar and urine amount (volume) of the mice of each group, which were measured 8 weeks after the treatment of control (non-treated with STZ), STZ, STZ+compound of Example 11 (30 mg/kg) and STZ+losartan (1 mg/kg).

[2] = target: T7, JAK2(JH1domain-catalytic) (Homo sapiens, UniProt O60674); assay: Enzyme inhibitory activity (Kd), Reaction Biology Co.; assay type: binding
T7 construct: JAK2 (JH1domain-catalytic); purchased Reaction Biology Co
T7 sequence (O60674 849-1124 limits assumed): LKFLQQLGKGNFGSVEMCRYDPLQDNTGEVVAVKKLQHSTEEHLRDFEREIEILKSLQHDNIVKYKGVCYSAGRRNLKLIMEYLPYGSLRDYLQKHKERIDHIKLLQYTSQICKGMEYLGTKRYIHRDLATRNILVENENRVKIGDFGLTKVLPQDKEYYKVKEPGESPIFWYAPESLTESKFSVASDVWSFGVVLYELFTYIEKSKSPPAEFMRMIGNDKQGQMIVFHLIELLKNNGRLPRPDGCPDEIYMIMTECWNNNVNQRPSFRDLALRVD

CDK11 = target: T8, CDK11 (Homo sapiens, UniProt Q9BWU1); assay: as above; assay type: binding
T8 construct: purchased Reaction Biology Co

LYN = target: T9, LYN (Homo sapiens, UniProt P07948); assay: as above; assay type: binding
T9 construct: purchased Reaction Biology Co

BLK = target: T10, BLK (Homo sapiens, UniProt P51451); assay: as above; assay type: binding
T10 construct: purchased Reaction Biology Co

YES = target: T11, YES (Homo sapiens, UniProt P07947); assay: as above; assay type: binding
T11 construct: purchased Reaction Biology Co

SRC = target: T12, SRC (Homo sapiens, UniProt P12931); assay: as above; assay type: binding
T12 construct: purchased Reaction Biology Co

LCK = target: T13, LCK (Homo sapiens, UniProt P06239); assay: as above; assay type: binding
T13 construct: purchased Reaction Biology Co

FGR = target: T14, FGR (Homo sapiens, UniProt P09769); assay: as above; assay type: binding
T14 construct: purchased Reaction Biology Co

FYN = target: T15, FYN (Homo sapiens, UniProt P06241); assay: as above; assay type: binding
T15 construct: purchased Reaction Biology Co

HCK = target: T16, HCK (Homo sapiens, UniProt P08631); assay: as above; assay type: binding
T16 construct: purchased Reaction Biology Co

T1 sequence (P07333 20-972): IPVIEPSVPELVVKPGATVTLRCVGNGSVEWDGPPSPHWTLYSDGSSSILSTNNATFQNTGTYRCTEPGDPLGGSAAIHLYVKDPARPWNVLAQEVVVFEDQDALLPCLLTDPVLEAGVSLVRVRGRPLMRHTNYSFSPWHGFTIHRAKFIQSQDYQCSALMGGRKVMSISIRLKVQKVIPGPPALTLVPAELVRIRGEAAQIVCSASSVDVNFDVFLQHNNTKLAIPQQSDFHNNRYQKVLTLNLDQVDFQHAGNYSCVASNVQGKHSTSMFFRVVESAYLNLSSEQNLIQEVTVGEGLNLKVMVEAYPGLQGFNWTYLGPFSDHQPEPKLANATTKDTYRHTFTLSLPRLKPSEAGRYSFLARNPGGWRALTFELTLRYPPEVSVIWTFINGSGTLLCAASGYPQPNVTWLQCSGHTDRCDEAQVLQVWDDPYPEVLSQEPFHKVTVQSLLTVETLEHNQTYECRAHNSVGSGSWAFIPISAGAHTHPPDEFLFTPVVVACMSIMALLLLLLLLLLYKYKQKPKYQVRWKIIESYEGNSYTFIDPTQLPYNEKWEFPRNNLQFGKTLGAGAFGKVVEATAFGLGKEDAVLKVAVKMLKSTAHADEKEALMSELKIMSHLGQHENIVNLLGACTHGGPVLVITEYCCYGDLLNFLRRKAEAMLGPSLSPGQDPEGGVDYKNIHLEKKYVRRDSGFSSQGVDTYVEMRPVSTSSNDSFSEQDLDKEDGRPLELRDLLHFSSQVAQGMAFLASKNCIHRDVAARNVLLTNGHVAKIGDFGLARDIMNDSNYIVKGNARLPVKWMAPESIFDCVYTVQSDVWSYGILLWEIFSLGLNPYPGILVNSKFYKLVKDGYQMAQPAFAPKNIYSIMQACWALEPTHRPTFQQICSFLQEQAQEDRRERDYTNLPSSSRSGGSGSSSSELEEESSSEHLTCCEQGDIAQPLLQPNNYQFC

| SMILES | Kd (CSF1R) | Kd (LOK) | IC50 (MDA-MB-231) | Kd (FGFR4) | Kd (RET(V804M)) | Kd (RET) | Kd [2] | also measured |
| --- | --- | --- | --- | --- | --- | --- | --- | --- |
| Cc1ccc(NC(=O)C2(C(=O)Nc3ccc(F)cc3)CC2)cc1C#Cc1cnc2c(Nc3cnn(C(C)C)c3)cccn12 [Example 78] | 440 nM | 37 nM | 8780 nM |  |  |  |  | Kd (EPHB6): 15 nM |
| Cc1cn(-c2cc(NC(=O)c3ccc(C)c(C#Cc4cnc5c(Nc6cnn(C)c6)cccn45)c3)cc(C(F)(F)F)c2)cn1 [Example 12, 4-methyl-N-(3-(4-methyl-1H-imidazol-1-yl)-5-(trifluoromethyl)phenyl)-3-((8-((1-methyl-1H-pyrazol-4-yl)amino)imidazo[1,2-a]pyridin-3-yl)ethynyl)benzamide] |  |  | 1190 nM | 370 nM | 32 nM | 25 nM |  |  |
| Cc1ccc(C(=O)Nc2cccc(C(F)(F)F)c2)cc1C#Cc1cnc2c(Nc3cnn(C4CCNCC4)c3)cccn12 [Example 11, 4-methyl-3-((8-((1-(piperidin-4-yl)-1H-pyrazol-4-yl)amino)imidazo[1,2-a]pyridin-3-yl)ethynyl)-N-(3-(trifluoromethyl)phenyl)benzamide] |  |  | 679 nM |  |  |  |  | HbA1C [1]: 6.7 ± 0.2 %; Kidney [1]: 1.6 ± 0.1 g; Urine volume [1]: 93.0 ± 12.5; Weight [1]: 241 ± 16.0 g; blood sugar [1]: 392 ± 33 mg/dL; kidney/Weight ratio [1]: 0.7 ± 0.04 |
| Cc1ccc(C(=O)Nc2ccc(CN3CCN(C)CC3)c(C(F)(F)F)c2)cc1C#Cc1cnc2c(Nc3cnn(C)c3)cccn12 [Example 1, 4-methyl-3-((8-((1-methyl-1H-pyrazol-4-yl)amino)imidazo[1,2-a]pyridin-3-yl)ethynyl)-N-(4-((4-methylpiperazin-1-yl)methyl)-3-(trifluoromethyl)phenyl)benzamide] | 34 nM | 7.3 nM | 187 nM | 56 nM | 11 nM | 10 nM | 220 nM | Kd (CDK11): 140 nM |
| CCN1CCN(Cc2ccc(NC(=O)c3ccc(C)c(C#Cc4cnc5c(Nc6cnn(C)c6)cccn45)c3)cc2C(F)(F)F)CC1 [Example 8, N-(4-((4-ethylpiperazin-1-yl)methyl)-3-(trifluoromethyl)phenyl)-4-methyl-3-((8-((1-methyl-1H-pyrazol-4-yl)amino)imidazo[1,2-a]pyridin-3-yl)ethynyl)benzamide] |  |  | 96 nM | 57 nM | 9.1 nM | 7.5 nM | 270 nM | Kd (LYN): 15 nM; Kd (BLK): 5 nM; Kd (YES): 17 nM; Kd (SRC): 10 nM; Kd (LCK): 6.4 nM; Kd (FGR): 13 nM; Kd (FYN): 52 nM; Kd (HCK): 7.7 nM |
